Reference: patent publication US6635641B2 (Agouron Pharmaceuticals, Inc., priority 2000, dated 2003)
Like-named read-outs stand apart in the source and are kept apart here.

What was measured:
CDK4/Cyclin D3 complex = molecular target: T1, CDK4/Cyclin D3 complex (Homo sapiens, UniProt P11802); assay: CDK4/Cyclin D assay ([32P]ATP incorporation into Rb fragment); assay type: biochemical; settings: read-out: CDK4 percent inhibition
T1 construct: made in house; host or cells: insect cells co-infected with baculovirus vectors
Procedure: A complex of human CDK4 and cyclin D3, or a complex of cyclin D1 and a fusion protein of human CDK4 and glutathione-S-transferase (GST-CDK4), was purified using traditional biochemical chromatographic techniques from insect cells that had been co-infected with the corresponding baculovirus expression vectors.
Cyclin-dependent kinase activity was measured by quantifying the enzyme-catalyzed, time-dependent incorporation of radioactive phosphate from [^32P]ATP into a recombinant fragment of the retinoblastoma protein. Unless noted otherwise, assays were performed in 96-well plates in a total volume of 50 μL, in the presence of 10 mM HEPES (N-[2-hydroxyethyl]piperazine-N′-[2-ethanesulfonic acid]) (pH 7.4), 10 mM MgCl2, 25 μM adenosine triphosphate (ATP), 1 mg/mL ovalbumin, 5 μg/mL leupeptin, 1 mM dithiothreitol, 10 mM β-glycerophosphate, 0.1 mM sodium vanadate, 1 mM sodium fluoride, 2.5 mM ethylene glycol-bis(β-aminoethyl ether)-N,N,N′N′-tetraacetic acid (EGTA), 2% (v/v) dimethylsulfoxide, and 0.03-0.2 μCi [^32P]ATP. The substrate (0.3-0.5 μg) was purified recombinant retinoblastoma protein fragment (Rb) (residues 386-928 of the native retinoblastoma protein; 62.3 kDa, containing the majority of the phosphorylation sites found in the native 106-kDa protein, as well as a tag of six histidine residues for ease of purification). Reactions were initiated with CDK2 (150 nM CDK2/Cyclin A complex) or CDK4 (50 nM CDK4/Cyclin D3 complex), incubated at 30° C., and terminated after 20 minutes by the addition of ethylenediaminetetraacetic acid (EDTA) to 250 mM. The phosphorylated substrate was then captured on a nitrocellulose membrane using a 96-well filtration manifold, and unincorporated radioactivity was removed by repeated washing with 0.85% phosphoric acid. Radioactivity was quantified by exposing the dried nitrocellulose membranes to a phosphorimager. Apparent Ki values were measured by assaying enzyme activity in the presence of different compound concentrations and subtracting the background radioactivity measured in the absence of enzyme. The kinetic parameters (kcat, Km for ATP) were measured for each enzyme under the usual assay conditions by determining the dependence of initial rates on ATP concentration. The data were fit to an equation for competitive inhibition using Kaleidagraph (Synergy Software), or were fit to an equation for competitive tight-binding inhibition using the software KineTic (BioKin, Ltd.). Measured Ki values for known inhibitors against CDK4 and CDK2 agreed with published IC50 values. The specific activity of CDK4 was the same whether complexed to full-length cyclin D3 or the truncated Cyclin D3 construct; both complexes also yielded very similar Ki values for selected inhibitors.

[1] = tested on: human umbilical vein endothelial cells (HUVEC); assay: HUVEC proliferation assay (VEGF-stimulated, MTT); assay type: cell-based; settings: Homo sapiens, HUVEC
Outline: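 Exponentially growing HUVEC (passage 3-4) were serum-starved 24 h in F12K + 1% FBS, given test compound (final DMSO 0.1%), then stimulated 1 h later with VEGF at 6 ng/ml final. Proliferation read after 72 h by 4 h MTT dye reduction, absorbance at 595.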

[2] = molecular target: T2, FGF-R1 intracellular kinase domain (Homo sapiens, UniProt P11362, C488A/C584S/L457V); assay: FGF-R spectrophotometric assay; assay type: biochemical; settings: for Ki: read-out: FGF-P Ki;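 for all read-outs here: coupled PK/LDH enzyme assay: ADP from kinase phosphoryl transfer drives NADH oxidation, read as absorbance decrease at 340 nm, with 2 mM ATP and poly(E4Y1) substrate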
T2 construct: starting from the endogenous methionine residue 456 to glutamate 766; made in house; host or cells: baculovirus expression system

LCK tyrosine kinase = molecular target: T3, LCK tyrosine kinase (Homo sapiens, UniProt P06239, C224D/P223M); assay: LCK spectrophotometric assay; assay type: biochemical; settings: for Ki: read-out: LCK-P Ki;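 for all read-outs here: recombinant LCK kinase activity on poly(E4Y1), ADP formation coupled through PK/LDH to NADH oxidation, followed as absorbance loss at 340 nm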
T3 construct: starting from amino acid residue 223 to the end of the protein at residue 509; made in house; host or cells: insect cells

[3] = tested on: lung cancer cells (line MV522); assay: Cancer cell proliferation (MV522) assay (MTT); assay type: cell-based; settings: MV522
Outline: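 Proliferation was read by MTT reduction 72 h after compound addition, in a 4-day protocol with no starvation step. Two thousand MV522 cells were seeded in RPMI1640 with 10% FBS and 2 mM glutamine and given 1 day to attach before dosing.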

[4] = molecular target: T4, unphosphorylated VEGF-R2Δ50 (FLVK) (Homo sapiens, UniProt P35968, DEL940-989/E990V); assay: VEGF-R2 coupled spectrophotometric assay, unphosphorylated construct (FLVK); assay type: biochemical;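 note: Baculovirus-expressed cytosolic kinase domain, ADP formation linked via pyruvate kinase and lactate dehydrogenase to NADH oxidation, read as falling absorbance at 340 nm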
T4 construct: VEGF-R2Δ50 contains residues 806-939 and 990-1171; made in house; host or cells: baculovirus/insect cells

[5] = with albumin, read-out: Huvec + Albumin IC50

T1 sequence (P11802 whole entry, the tested form may be a part): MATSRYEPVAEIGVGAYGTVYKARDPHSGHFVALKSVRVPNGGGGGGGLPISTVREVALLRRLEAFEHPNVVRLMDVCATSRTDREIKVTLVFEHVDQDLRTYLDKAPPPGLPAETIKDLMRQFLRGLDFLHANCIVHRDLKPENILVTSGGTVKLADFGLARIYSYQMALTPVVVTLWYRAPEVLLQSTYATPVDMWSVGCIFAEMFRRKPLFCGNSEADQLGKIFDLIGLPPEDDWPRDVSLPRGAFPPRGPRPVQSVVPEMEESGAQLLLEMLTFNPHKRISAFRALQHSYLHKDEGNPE
T1 sequence (P30281 whole entry partner, the tested form may be a part): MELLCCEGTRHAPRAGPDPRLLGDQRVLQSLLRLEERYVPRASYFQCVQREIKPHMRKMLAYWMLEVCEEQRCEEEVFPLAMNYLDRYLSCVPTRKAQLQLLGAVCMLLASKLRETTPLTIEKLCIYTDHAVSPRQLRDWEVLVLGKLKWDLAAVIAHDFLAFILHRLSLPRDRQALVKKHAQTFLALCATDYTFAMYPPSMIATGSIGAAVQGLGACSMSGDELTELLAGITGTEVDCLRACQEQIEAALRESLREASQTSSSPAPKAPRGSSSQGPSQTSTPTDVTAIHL
T4 sequence (P35968 with tags, fused parts or gaps DEL940-989/E990V limits assumed): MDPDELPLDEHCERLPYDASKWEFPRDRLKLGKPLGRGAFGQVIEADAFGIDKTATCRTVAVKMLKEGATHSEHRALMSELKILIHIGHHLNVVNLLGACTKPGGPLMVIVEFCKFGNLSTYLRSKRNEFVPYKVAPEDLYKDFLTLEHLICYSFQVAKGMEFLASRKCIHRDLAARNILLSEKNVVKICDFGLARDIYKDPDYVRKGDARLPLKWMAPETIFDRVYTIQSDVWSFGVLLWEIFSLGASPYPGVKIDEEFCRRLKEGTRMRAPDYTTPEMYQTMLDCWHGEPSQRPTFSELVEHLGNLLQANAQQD
T3 sequence (P06239 223-509 P223M/C224D): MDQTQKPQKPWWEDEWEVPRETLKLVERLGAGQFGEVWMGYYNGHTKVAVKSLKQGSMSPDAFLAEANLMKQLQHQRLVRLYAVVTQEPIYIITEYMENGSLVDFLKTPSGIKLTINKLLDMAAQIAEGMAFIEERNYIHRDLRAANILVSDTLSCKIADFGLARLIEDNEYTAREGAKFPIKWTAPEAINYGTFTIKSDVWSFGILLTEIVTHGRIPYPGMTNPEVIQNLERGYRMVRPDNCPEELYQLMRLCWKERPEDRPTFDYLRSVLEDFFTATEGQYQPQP
T2 sequence (P11362 456-766 L457V/C488A/C584S): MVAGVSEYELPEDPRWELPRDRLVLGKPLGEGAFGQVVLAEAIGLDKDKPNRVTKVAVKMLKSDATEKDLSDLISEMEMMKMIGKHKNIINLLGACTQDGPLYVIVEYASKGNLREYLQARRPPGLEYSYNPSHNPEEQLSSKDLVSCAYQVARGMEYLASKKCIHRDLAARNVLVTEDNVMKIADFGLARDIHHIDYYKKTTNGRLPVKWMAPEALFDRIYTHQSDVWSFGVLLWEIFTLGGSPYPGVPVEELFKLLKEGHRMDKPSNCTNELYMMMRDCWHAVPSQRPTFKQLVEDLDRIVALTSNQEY

Row | SMILES | inhibition at 1 µM (CDK4/Cyclin D3 complex) [%] | IC50 ([1]; read-out: HUVEC IC50) [nM] | Ki [2] [nM] | Ki (LCK tyrosine kinase) [nM] | IC50 [3] [nM] | Ki [4] [nM] | IC50 [1, 5] [nM] | inhibition at 100 µM (CDK4/Cyclin D3 complex; @ 100 μM) [%] | inhibition at 5 µM ([2]; at 5 μM, read-out: FGF-P percent inhibition) [%] | inhibition at 5 µM (LCK tyrosine kinase; @ 5 μM, read-out: LCK-P percent inhibition) [%] | inhibition at 1 µM ([2]; @ 1 μM, read-out: FGF-P percent inhibition) [%]
1 | Cc1cc(NC(=O)c2ccc(F)c(OCc3cncc4ccccc34)c2)ccc1C(C)C [Example K-10, N-(4-Isopropyl-3-methyl-phenyl)-4-fluoro-3-(Isoquinolin-4-yl)methoxy-benzamide] | 17 | 12 | 26 | 57.7 | 4600 | 0.23 | – | – | – | – | –
2 | O=C(Nc1ccc(N2CCCC2)c(C(F)(F)F)c1)c1cccc(CCc2cc(Nc3cccnc3)n[nH]2)c1 [Example G-11] | 16 | 4.4 | 19 | 2.5 | 5600 | 0.11 | 64 | – | – | – | –
3 | Cc1ccc2cc(NC(=O)c3cccc(SCc4cc(Nc5ccccc5)n[nH]4)c3)ccc2n1 [Example E-1, N-(2-methyl-quinolin-6-yl)-3-[{5-(phenylamino)-2-H-pyrazol-3-yl}methylsulfanyl]benzamide] | – | 170 | – | – | > 10000 | 1.4 | > 1000 | 40 | 36 | 85 | –
4 | CC(=O)Nc1ccc(COc2cccc(C(=O)Nc3ccc4nc(C)ccc4c3)c2)cn1 [Example N-1, 3-(6-Acetylaminopyridin-3-yl)methoxy-N-(2-methyl-quinolin-6-yl)-benzamide] | 19 | 38 | – | 160 | > 10000 | 1.3 | > 1000 | – | – | – | 12
